Data reported in US8648066B2 (Exelixis, Inc., priority 2009, dated 2014).

Target: mTOR/GbL/Raptor (mTORC1) (Homo sapiens, UniProt P42345)
Assay: mTOR/GbL/Raptor (mTORC1) ELISA assay
Format: biochemical
Details: phosphorylation of 4E-BP1; 0.2 nM mTORC1, 10 μM ATP; read-out: IC50 in this assay (mTORC1 ELISA)
Method in brief: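 ELISA read-out: phospho-4E-BP1 captured on Ni-chelate plates and detected with anti-phospho antibody plus HRP-anti-IgG luminescence. The kinase step ran 120 min at ambient temperature with 0.2 nM human mTORC1, 10 µM ATP, 50 nM His-4E-BP1, 10 mM MnCl2, pH 7.2 HEPES.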

Cc1nc2ccc(-c3ccc4c(c3)CN(c3cc(C(F)(F)F)nc5ccccc35)CCO4)cc2[nH]1 [Example 99, 7-(2-methyl-1H-benzimidazol-6-yl)-4-[2-(trifluoromethyl)quinolin-4-yl]-2,3,4,5-tetrahydro-1,4-benzoxazepine]
IC50: 50 to 250 nM

COc1c(OCC(C)C)ccc2c(N3CCOc4ccc(-c5ccc6nc(C)[nH]c6c5)cc4C3)ncnc12 [Example 166, 7-(2-methyl-1H-benzimidazol-6-yl)-4-{8-(methyloxy)-7-[(2-methylpropyl)oxy]quinazolin-4-yl}-2,3,4,5-tetrahydro-1,4-benzoxazepine]
IC50: 250 to 1000 nM

COc1ccc2c(N3CCOc4ccc(-c5ccc6[nH]c(C)nc6c5)cc4C3)nc(CN(C)C)nc2c1 [Example 659, N,N-dimethyl-1-{4-[7-(2-methyl-1H-benzimidazol-5-yl)-2,3-dihydro-1,4-benzxazepin-4(5H)-yl]-7-(methyloxy)quinazolin-2-yl}methanamine]
IC50: 250 to 1000 nM

CNC(=O)c1ccc(-c2ccc3c(c2)CN(c2nc(CN(C)C)nc4c2CC(C)(C)CC4)CCO3)cc1 [Example 466, 4-(4-{2-[(dimethylamino)methyl]-6,6-dimethyl-5,6,7,8-tetrahydroquinazolin-4-yl}-2,3,4,5-tetrahydro-1,4-benzoxazepin-7-yl)-N-methylbenzamide]
IC50: 50 to 250 nM

Cc1nc2cc(-c3ccc4c(c3)CN(c3nc([C@@H]5CCCN5)nc5c3CC(C)(C)CC5)CCO4)cnc2[nH]1 [Example 507, 4-{6,6-dimethyl-2-[(2S)-pyrrolidin-2-yl]-5,6,7,8-tetrahydroquinazolin-4-yl}-7-(2-methyl-3H-imidazo[4,5-b]pyridin-6-yl)-2,3,4,5-tetrahydro-1,4-benzoxazepine]
IC50: ≤ 10 nM

CNC1CN(S(=O)(=O)c2cc(-c3ccc4c(c3)CN(c3ncnc5c3CC(C)(C)CC5)CCO4)cnc2N)C1 [Example 519, 5-[4-(6,6-dimethyl-5,6,7,8-tetrahydroquinazolin-4-yl)-2,3,4,5-tetrahydro-1,4-benzoxazepin-7-yl]-3-{[3-(methylamino)azetidin-1-yl]sulfonyl}pyridin-2-amine]
IC50: 10 to 50 nM

Cc1nc(N)sc1-c1ccc2c(c1)CN(c1ncnc3c1CCC(C)(C)C3)CCO2 [Example 156, 5-[4-(7,7-dimethyl-5,6,7,8-tetrahydroquinazolin-4-yl)-2,3,4,5-tetrahydro-1,4-benzoxazepin-7-yl]-4-methyl-1,3-thiazol-2-amine]
IC50: 10 to 50 nM

CC1(C)CCc2ncnc(N3CCOc4ccc(-c5cnc6[nH]c(CF)nc6c5)cc4C3)c2C1 [Example 238, 4-(6,6-dimethyl-5,6,7,8-tetrahydroquinazolin-4-yl)-7-[2-(fluoromethyl)-3H-imidazo[4,5-b]pyridin-6-yl]-2,3,4,5-tetrahydro-1,4-benzoxazepine]
IC50: ≤ 10 nM

COc1ccc2c(N3CCOc4ccc(-c5cnc6[nH]ccc6c5)cc4C3)nc(C)nc2c1 [Example 267, 4-[2-methyl-7-(methyloxy)quinazolin-4-yl]-7-(1H-pyrrolo[2,3-b]pyridin-5-yl)-2,3,4,5-tetrahydro-1,4-benzoxazepine]
IC50: 250 to 1000 nM

COc1ccc2c(N3CCOc4ccc(-c5cnc6sc(N)nc6c5)cc4C3)nc(CN(C)C)nc2c1 [Example 527, 6-(4-{2-[(dimethylamino)methyl]-7-(methyloxy)quinazolin-4-yl}-2,3,4,5-tetrahydro-1,4-benzoxazepin-7-yl)[1,3]thiazolo[5,4-b]pyridin-2-amine]
IC50: 250 to 1000 nM

CC1(C)CCc2ncnc(N3CCOc4ccc(-c5cnc(N)c(S(=O)(=O)N6CC(C)(N)C6)c5)cc4C3)c2C1 [Example 439, 3-[(3-amino-3-methylazetidin-1-yl)sulfonyl]-5-[4-(6,6-dimethyl-5,6,7,8-tetrahydroquinazolin-4-yl)-2,3,4,5-tetrahydro-1,4-benzoxazepin-7-yl]pyridin-2-amine]
IC50: ≤ 10 nM

Cn1ccc2cc(-c3ccc4c(c3)CN(c3ccnc5ccccc35)CCO4)cnc21 [Example 222]
IC50: 250 to 1000 nM
